According to ChEMBL document CHEMBL1155922, “Epiboxidine and novel-related analogues: a convenient synthetic approach and estimation of their affinity at neuronal nicotinic acetylcholine receptor subtypes” (Bioorg Med Chem Lett, 2008):

Key:
[1] = target: T1, Neuronal acetylcholine receptor; alpha4/beta2 (Homo sapiens, UniProt P17787+P43681); assay: Displacement of [3H]cystisine from alpha4beta2 nAChR; assay type: protein-complex assay
[2] = target: T2, Neuronal acetylcholine receptor; alpha4/beta2 (Rattus norvegicus, UniProt P09483+P12390); assay: Displacement of [3H]epibatidine from alpha4beta2 nAChR in rat cortical membrane; assay type: cell membranes
[3] = target: Neuronal acetylcholine receptor subunit alpha-7 (Rattus norvegicus, UniProt Q05941); assay: Displacement of [125I]alpha-bungarotoxin from alpha7 nAChR in rat cortical membrane; assay type: cell membranes
[4] = target: T2, Neuronal acetylcholine receptor; alpha4/beta2; assay: Displacement of [3H]nicotine from alpha4beta2 nAChR in rat cerebral membrane; assay type: cell membranes
[5] = target: T1, Neuronal acetylcholine receptor; alpha4/beta2; assay: Binding affinity to alpha4beta2 nAChR; assay type: protein-complex assay
[6] = species on record: Rattus norvegicus; assay: Selectivity ratio of Ki for rat alpha4beta2 nAChR to Ki for rat alpha7 nAChR

T2 sequence (P09483 whole entry): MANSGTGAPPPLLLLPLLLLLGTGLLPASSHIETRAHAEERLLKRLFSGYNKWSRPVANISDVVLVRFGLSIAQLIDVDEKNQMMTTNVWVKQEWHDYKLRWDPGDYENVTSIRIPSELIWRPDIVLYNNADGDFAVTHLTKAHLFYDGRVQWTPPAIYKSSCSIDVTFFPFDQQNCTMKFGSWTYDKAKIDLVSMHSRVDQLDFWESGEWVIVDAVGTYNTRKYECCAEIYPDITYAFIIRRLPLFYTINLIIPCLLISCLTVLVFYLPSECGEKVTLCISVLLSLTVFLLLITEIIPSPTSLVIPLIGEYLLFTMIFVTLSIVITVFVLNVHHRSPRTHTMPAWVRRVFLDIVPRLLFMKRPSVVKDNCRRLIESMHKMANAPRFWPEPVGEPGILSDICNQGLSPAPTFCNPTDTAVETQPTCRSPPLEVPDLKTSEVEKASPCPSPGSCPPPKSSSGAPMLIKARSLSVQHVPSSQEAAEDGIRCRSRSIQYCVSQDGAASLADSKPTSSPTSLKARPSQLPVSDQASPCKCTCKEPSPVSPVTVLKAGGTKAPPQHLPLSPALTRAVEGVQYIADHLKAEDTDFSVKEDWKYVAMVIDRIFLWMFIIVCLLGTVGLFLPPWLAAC
T2 sequence (P12390 whole entry): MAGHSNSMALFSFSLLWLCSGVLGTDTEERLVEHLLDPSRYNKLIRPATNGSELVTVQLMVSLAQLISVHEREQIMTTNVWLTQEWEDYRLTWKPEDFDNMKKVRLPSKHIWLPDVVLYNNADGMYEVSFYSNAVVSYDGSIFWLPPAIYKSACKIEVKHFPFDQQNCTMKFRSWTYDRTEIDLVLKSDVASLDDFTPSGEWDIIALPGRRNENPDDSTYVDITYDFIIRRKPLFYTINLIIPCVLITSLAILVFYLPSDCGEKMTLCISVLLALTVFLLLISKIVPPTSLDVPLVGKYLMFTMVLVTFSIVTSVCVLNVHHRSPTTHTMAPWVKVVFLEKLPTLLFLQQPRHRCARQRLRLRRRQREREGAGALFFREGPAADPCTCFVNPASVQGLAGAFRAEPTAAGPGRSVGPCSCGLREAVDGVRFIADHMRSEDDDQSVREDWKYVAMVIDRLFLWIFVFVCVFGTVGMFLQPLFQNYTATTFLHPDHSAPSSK
Neuronal acetylcholine receptor subunit alpha-7, sequence (Q05941 whole entry): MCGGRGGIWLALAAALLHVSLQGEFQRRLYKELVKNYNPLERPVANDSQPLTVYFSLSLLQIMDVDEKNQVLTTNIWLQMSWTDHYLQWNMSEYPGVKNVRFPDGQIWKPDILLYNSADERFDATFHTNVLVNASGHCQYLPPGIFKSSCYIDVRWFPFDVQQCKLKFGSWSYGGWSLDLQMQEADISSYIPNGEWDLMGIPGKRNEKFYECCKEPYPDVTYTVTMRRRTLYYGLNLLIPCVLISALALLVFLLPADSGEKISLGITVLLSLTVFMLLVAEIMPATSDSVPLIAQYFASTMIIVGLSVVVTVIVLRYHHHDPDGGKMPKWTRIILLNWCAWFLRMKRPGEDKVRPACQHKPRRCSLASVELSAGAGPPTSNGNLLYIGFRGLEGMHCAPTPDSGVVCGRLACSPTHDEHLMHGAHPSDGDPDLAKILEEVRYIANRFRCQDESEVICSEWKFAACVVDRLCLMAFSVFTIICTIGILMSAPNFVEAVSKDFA
T1 sequence (P17787 whole entry): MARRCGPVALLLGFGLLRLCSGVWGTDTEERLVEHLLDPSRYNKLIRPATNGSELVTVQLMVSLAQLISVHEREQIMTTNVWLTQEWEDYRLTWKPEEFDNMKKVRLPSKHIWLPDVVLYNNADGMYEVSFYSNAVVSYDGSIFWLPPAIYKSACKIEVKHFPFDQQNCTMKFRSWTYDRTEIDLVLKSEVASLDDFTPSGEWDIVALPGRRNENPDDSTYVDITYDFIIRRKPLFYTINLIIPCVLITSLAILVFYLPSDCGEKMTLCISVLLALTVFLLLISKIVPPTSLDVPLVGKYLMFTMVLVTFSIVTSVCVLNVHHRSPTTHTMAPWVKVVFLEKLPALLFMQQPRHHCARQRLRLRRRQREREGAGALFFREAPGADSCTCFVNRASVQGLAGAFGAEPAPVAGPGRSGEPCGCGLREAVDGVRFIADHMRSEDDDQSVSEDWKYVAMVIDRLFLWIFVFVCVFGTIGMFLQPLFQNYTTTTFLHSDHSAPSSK
T1 sequence (P43681 whole entry): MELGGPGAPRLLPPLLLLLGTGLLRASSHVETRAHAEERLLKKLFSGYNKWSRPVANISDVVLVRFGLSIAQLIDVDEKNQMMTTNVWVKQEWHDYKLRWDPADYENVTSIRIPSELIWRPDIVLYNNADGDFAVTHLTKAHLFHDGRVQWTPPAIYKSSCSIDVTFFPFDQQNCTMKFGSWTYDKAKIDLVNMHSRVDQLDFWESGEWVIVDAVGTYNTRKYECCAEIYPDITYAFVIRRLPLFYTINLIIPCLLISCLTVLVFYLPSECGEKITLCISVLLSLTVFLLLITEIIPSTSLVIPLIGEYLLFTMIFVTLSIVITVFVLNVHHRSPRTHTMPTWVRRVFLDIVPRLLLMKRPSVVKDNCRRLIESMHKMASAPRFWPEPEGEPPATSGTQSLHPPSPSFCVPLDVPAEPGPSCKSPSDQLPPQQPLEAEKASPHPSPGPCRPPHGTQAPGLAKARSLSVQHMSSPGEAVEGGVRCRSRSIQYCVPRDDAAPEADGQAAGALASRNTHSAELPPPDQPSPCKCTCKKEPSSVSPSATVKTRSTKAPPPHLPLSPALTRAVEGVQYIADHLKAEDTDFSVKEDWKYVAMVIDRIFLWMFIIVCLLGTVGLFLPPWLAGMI

| Compound | Ki [1] | Ki [2] | Ki [3] | Ki [4] | Ki [5] | Ratio Ki [6] |
| --- | --- | --- | --- | --- | --- | --- |
| Cc1cc([C@H]2C[C@H]3CC[C@H]2N3)on1 (racemic) [EXO-EPIBOXIDINE] | 1.33 nM | 0.4 nM | 6 nM | 0.6 nM | 0.46 nM | 15 |
| Cc1cc(C2=CC3CCC2N3C)on1 (racemic) |  | 514 nM | 394 nM |  |  |  |
| Cc1cc([C@@H]2C[C@H]3CC[C@H]2N3)on1 (racemic) [ENDO-EPIBOXIDINE] |  | 70 nM | 230 nM |  |  |  |
| Cc1cc(C2=CC3CCC2N3)on1 (racemic) |  | 50 nM | 1600 nM |  |  | 32 |
